# The supplement of paper PMC10307832
# Columns and labels:
# Test in all cases: relative viability (nuclei count vs DMSO), 5 days (fraction); higher = more cells survive
# [1] = compound: COc1ncc(-c2ccc3nccc(-c4ccnnc4)c3c2)cc1NS(=O)(=O)c1ccc(F)cc1F [Omipalisib] + CS(=O)(=O)N1CCN(Cc2cc3nc(-c4cccc5[nH]ncc45)nc(N4CCOCC4)c3s2)CC1 [Pictilisib] (partner 1 µM)
# How it was run: (§1)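 The day after seeding in 1536-well plates, lung cancer cell lines were treated by pin tool with a single drug, or with a fixed anchor-drug dose together with five library-drug doses (not always all listed) in √10 steps. After 5 days, a combined fix-and-stain solution (final 0.05% Triton X-100, 1% formaldehyde, 1 ug/ml Hoechst) was added. Nuclei counted on 4× images gave relative viability as treated counts over vehicle counts, reported as the median of duplicate plates.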
# [2] = compound: COc1ncc(-c2ccc3nccc(-c4ccnnc4)c3c2)cc1NS(=O)(=O)c1ccc(F)cc1F [Omipalisib] + CC(=O)c1c(C)c2cnc(Nc3ccc(N4CCNCC4)cn3)nc2n(C2CCCC2)c1=O [Palbociclib] (partner 0.5 µM)
# How it was run: as §1
# [3] = compound: COc1ncc(-c2ccc3nccc(-c4ccnnc4)c3c2)cc1NS(=O)(=O)c1ccc(F)cc1F [Omipalisib] + Cc1cc(Nc2cc(N3CCN(C)CC3)nc(Sc3ccc(NC(=O)C4CC4)cc3)n2)n[nH]1 [Tozasertib] (partner 0.1 µM)
# How it was run: as §1
# [4] = compound: COc1ncc(-c2ccc3nccc(-c4ccnnc4)c3c2)cc1NS(=O)(=O)c1ccc(F)cc1F [Omipalisib] + Cc1nc(Nc2ncc(C(=O)Nc3c(C)cccc3Cl)s2)cc(N2CCN(CCO)CC2)n1 [Dasatinib] (partner 0.075 µM)
# How it was run: as §1
# [5] = compound: COc1ncc(-c2ccc3nccc(-c4ccnnc4)c3c2)cc1NS(=O)(=O)c1ccc(F)cc1F [Omipalisib] + CS(=O)(=O)CCNCc1ccc(-c2ccc3ncnc(Nc4ccc(OCc5cccc(F)c5)c(Cl)c4)c3c2)o1 [Lapatinib] (partner 2 µM)
# How it was run: as §1
# [6] = compound: COc1ncc(-c2ccc3nccc(-c4ccnnc4)c3c2)cc1NS(=O)(=O)c1ccc(F)cc1F [Omipalisib]
# How it was run: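 Vehicle-anchored 1536-well plates of lung cancer cell lines, held overnight at 37 °C, were pinned with five library-drug doses (not always all listed) spaced by √10. No medium change followed over the next 5 days, after which the cells were fixed, permeabilised and Hoechst-stained together and imaged at 4×. Nuclei were counted with MetaXpress, and viability is treated-well nuclei over vehicle-well nuclei, taken as a median across plates. Plates passed with control CV below 25% and at least one doubling.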
Cell Line,relative viability ([1]; first compound 0.0003 µM),relative viability ([1]; first compound 0.003 µM),relative viability ([1]; first compound 0.03 µM),relative viability ([2]; first compound 0.0003 µM),relative viability ([2]; first compound 0.003 µM),relative viability ([2]; first compound 0.03 µM),relative viability ([3]; first compound 0.0003 µM),relative viability ([3]; first compound 0.003 µM),relative viability ([3]; first compound 0.03 µM),relative viability ([4]; first compound 0.0003 µM),relative viability ([4]; first compound 0.003 µM),relative viability ([4]; first compound 0.03 µM),relative viability ([5]; first compound 0.0003 µM),relative viability ([5]; first compound 0.003 µM),relative viability ([5]; first compound 0.03 µM),relative viability ([6]; 0.0003 µM),relative viability ([6]; 0.003 µM),relative viability ([6]; 0.03 µM)
201T,0.706,0.668,0.554,0.325,0.343,0.27,0.883,0.894,0.473,0.582,0.413,0.323,1.02,0.935,0.936,0.986,1.03,0.729
A-427,0.729,0.697,0.744,0.501,0.49,0.455,0.206,0.188,0.163,0.686,0.434,0.625,1.08,0.897,1.05,0.994,0.866,0.828
ABC-1,0.72,0.628,0.533,0.603,0.482,0.364,0.161,0.189,0.213,0.424,0.499,0.35,0.994,1.02,0.769,1.02,0.705,0.538
BEN,0.513,0.378,0.412,0.434,0.444,0.452,0.43,0.426,0.457,0.277,0.3,0.307,0.566,0.444,0.364,0.789,0.577,0.712
CAL-12T,0.579,0.524,0.385,0.533,0.415,0.142,0.306,0.28,0.151,0.53,0.241,0.0952,0.787,0.496,0.475,1.12,1.1,0.594
COR-L23,0.723,0.709,0.449,0.286,0.246,0.212,0.209,0.21,0.159,0.487,0.323,0.239,1.01,0.893,0.517,1.01,1,0.631
COR-L 105,0.349,0.356,0.299,0.406,0.432,0.415,0.356,0.359,0.316,0.301,0.287,0.186,0.37,0.334,0.313,0.937,0.976,0.535
ChaGo-K-1,0.635,0.652,0.809,0.853,0.843,0.708,0.242,0.202,0.167,0.657,0.583,0.473,,,,0.978,0.917,0.919
EKVX,0.45,0.434,0.393,0.301,0.326,0.182,0.407,0.246,0.157,0.398,0.302,0.175,0.198,0.17,0.131,0.985,0.79,0.44
EMC-BAC-2,0.514,0.465,0.432,0.441,0.38,0.311,0.266,0.27,0.261,0.261,0.231,0.21,0.726,0.611,0.608,0.848,0.613,0.549
EPLC-272H,0.403,0.377,0.298,0.311,0.306,0.225,0.254,0.186,0.165,0.387,0.239,0.113,0.908,0.535,0.562,0.958,0.661,0.387
H3255,0.432,0.439,0.293,0.365,0.313,0.285,0.554,0.556,0.286,0.336,0.325,0.257,0.219,0.193,0.203,0.93,0.85,0.51
HARA,0.464,0.661,0.354,0.267,0.181,0.169,0.11,0.0779,0.0711,0.291,0.288,0.187,0.613,0.659,0.326,0.952,0.822,0.42
HCC-15,0.698,0.599,0.702,0.748,0.614,0.521,0.373,0.38,0.237,0.552,0.349,0.42,0.81,0.779,0.795,0.973,0.691,0.7
HCC-44,0.579,0.464,0.441,0.962,0.962,0.879,1.03,0.953,0.234,,,,1.09,0.96,0.432,1.01,0.953,0.416
HCC-78,0.198,0.183,0.189,0.48,0.411,0.414,0.327,0.328,0.21,0.359,0.313,0.219,0.329,0.567,0.386,0.937,0.666,0.345
HCC-366,0.137,0.1,0.0924,0.329,0.202,0.0493,0.113,0.0977,0.0346,0.575,0.2,0.179,0.898,0.496,0.186,0.938,0.853,0.366
